According to ChEMBL document CHEMBL1135208, “Syntheses and EGFR and HER-2 kinase inhibitory activities of 4-anilinoquinoline-3-carbonitriles: analogues of three important 4-anilinoquinazolines currently undergoing clinical evaluation as therapeutic antitumor agents” (Bioorg Med Chem Lett, 2002):
In brackets after ≈: the same amount, converted by molar mass.

Key:
SK-BR-3 = assay: cells; assay type: functional, cell-based; conditions: Homo sapiens
Description: Inhibition of SKBR-3 cell proliferation

SW-620 = assay: cells; assay type: functional, cell-based; conditions: Homo sapiens
Description: Inhibition of SW-620 cell proliferation

A-431 = assay: cells; assay type: functional, cell-based; conditions: Homo sapiens
Description: Inhibition of A431 cell proliferation

[1] = target: Epidermal growth factor receptor (Homo sapiens, UniProt P00533)
Description: Inhibition of Epidermal Growth Factor Receptor (EGFR) autophosphorylation

[2] = target: Receptor tyrosine-protein kinase erbB-2 (Homo sapiens, UniProt P04626)
Sequence of Receptor tyrosine-protein kinase erbB-2 (P04626 whole entry): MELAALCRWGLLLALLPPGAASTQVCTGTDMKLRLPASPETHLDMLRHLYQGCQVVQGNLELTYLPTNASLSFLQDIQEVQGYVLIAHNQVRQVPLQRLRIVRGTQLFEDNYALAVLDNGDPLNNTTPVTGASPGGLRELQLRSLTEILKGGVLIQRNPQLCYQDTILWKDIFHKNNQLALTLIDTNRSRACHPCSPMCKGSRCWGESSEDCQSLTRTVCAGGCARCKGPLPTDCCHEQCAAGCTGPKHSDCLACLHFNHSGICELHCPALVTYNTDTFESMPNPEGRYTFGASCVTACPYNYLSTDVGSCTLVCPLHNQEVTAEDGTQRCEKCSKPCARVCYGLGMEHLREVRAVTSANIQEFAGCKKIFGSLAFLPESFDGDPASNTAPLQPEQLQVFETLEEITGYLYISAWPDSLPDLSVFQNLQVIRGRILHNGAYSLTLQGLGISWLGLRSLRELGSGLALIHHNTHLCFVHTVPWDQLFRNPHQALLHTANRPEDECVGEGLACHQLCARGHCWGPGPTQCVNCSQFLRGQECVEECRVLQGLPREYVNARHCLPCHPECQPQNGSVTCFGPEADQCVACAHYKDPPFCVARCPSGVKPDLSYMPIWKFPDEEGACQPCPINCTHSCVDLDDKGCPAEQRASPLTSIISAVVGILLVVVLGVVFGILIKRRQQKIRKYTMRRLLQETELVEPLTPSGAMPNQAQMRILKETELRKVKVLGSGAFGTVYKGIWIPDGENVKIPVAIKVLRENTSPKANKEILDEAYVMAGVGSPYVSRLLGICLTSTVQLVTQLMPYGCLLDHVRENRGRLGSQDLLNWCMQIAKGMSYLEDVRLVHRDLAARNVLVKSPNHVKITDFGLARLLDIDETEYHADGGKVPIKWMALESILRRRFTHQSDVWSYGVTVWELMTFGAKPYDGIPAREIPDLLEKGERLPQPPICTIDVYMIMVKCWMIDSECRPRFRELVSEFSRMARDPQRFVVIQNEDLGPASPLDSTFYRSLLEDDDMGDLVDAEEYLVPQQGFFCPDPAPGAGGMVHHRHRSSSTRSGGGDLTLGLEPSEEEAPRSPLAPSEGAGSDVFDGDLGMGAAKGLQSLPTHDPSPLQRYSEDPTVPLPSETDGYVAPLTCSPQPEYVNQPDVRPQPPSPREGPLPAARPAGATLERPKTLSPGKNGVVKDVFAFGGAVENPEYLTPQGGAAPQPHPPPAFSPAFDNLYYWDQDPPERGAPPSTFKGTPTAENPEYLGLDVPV
Description: Inhibition of human epidermal growth factor receptor-2 autophosphorylation

Sequence of Epidermal growth factor receptor (P00533 whole entry): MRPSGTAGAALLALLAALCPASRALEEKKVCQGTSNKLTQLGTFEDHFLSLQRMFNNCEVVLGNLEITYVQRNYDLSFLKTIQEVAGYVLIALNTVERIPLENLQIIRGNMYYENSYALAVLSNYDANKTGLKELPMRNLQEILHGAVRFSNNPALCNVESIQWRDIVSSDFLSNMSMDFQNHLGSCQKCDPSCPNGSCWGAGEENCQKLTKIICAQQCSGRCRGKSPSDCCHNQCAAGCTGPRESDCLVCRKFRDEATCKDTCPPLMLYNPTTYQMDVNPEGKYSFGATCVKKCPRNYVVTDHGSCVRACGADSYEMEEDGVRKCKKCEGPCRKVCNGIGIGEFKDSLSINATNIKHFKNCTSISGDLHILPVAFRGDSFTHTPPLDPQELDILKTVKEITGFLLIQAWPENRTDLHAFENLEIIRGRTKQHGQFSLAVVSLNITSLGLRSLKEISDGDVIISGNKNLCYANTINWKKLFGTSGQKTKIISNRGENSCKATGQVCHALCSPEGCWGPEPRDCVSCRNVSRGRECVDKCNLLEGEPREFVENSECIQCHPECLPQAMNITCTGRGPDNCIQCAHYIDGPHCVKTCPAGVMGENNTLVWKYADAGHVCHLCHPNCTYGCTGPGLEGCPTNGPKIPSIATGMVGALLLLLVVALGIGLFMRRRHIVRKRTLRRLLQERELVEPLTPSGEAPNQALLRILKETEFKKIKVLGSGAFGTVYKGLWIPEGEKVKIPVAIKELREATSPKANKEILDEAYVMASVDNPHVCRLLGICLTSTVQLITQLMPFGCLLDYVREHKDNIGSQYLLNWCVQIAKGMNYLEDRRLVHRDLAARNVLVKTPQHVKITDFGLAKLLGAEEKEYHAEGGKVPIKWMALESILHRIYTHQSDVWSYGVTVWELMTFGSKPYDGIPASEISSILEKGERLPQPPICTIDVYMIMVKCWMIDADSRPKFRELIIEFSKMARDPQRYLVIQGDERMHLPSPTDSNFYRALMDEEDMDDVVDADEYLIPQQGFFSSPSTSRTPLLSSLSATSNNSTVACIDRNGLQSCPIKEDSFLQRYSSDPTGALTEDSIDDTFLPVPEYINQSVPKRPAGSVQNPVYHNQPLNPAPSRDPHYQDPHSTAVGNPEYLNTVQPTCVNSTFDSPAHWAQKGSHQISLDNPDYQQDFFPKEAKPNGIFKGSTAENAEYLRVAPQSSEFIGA

Row | IC50 (SK-BR-3) [µg/mL] | IC50 (SW-620) [µg/mL] | IC50 (A-431) [µg/mL] | IC50 [1] [nM] | IC50 [2] [nM] | Structure (SMILES)
1 | 0.102 (≈ 0.21 µM) | 1.45 (≈ 2.98 µM) | 0.083 (≈ 0.171 µM) | – | – | C=CC(=O)Nc1cc2c(Nc3ccc(F)c(Cl)c3)ncnc2cc1OCCCN1CCOCC1 [CANERTINIB]
2 | 0.332 (≈ 0.705 µM) | > 5 | 0.25 (≈ 0.531 µM) | 1040 | 14700 | COc1cc2ncc(C#N)c(Nc3ccc(F)c(Cl)c3)c2cc1OCCCN1CCOCC1
3 | 0.071 (≈ 0.17 µM) | 0.68 (≈ 1.63 µM) | 0.173 (≈ 0.414 µM) | 850 | 11800 | C#Cc1cccc(Nc2c(C#N)cnc3cc(OCCOC)c(OCCOC)cc23)c1
4 | 0.007 (≈ 0.015 µM) | 0.317 (≈ 0.677 µM) | 0.03 (≈ 0.0641 µM) | – | 1230 | CCOc1cc2ncc(C#N)c(Nc3ccc(F)c(Cl)c3)c2cc1NC(=O)/C=C/CN(C)C [PELITINIB]

Row | Structure (SMILES) | IC50 (SK-BR-3) [µg/mL] | IC50 (SW-620) [µg/mL] | IC50 (A-431) [µg/mL] | IC50 [1] [nM] | IC50 [2] [nM]
5 | C=CC(=O)Nc1cc2c(Nc3ccc(F)c(Cl)c3)c(C#N)cnc2cc1OCCCN1CCOCC1 | 0.03 (≈ 0.0588 µM) | 0.77 (≈ 1.51 µM) | 0.12 (≈ 0.235 µM) | 80 | 1690
